According to patent US9505734B2, “Phenyl C-glucoside derivative containing deoxyglucose structure, preparation method and use thereof” (Tianjin Institute of Pharmaceutical Research, priority 2012, dated 2016):

test system: SD rats (type 2 diabetes model); experiment: model for rat urine glucose excretion (glucose-oxidase method); assay type: in vivo; conditions: comparison in words, rat urine glucose excretion model, 6 mg/kg
Description: The health SD rats are injected intraperitoneally with multiple low doses of streptozotocin for modeling (type 2 diabetes model) after feeding with high-fat and high-sucrose diet, and the content of blood glucose is measured before and after modeling. After the modeling successful, the rats for modeling are randomly divided (8 rats/group) into one blank group (administering the same volume of 0.5% CMC sodium solution) and several groups for compounds to be tested (6 mg/kg) according to the content of 24-hour urine glucose and the body weight. Rats in each group are fasted for 16 hours before experiment. The experimental rats are administered intragastrically with glucose (2 g/kg) at 0.5 h after intragastrical administration with compounds to be tested. The urine is collected at the time-period of 0-12 h after administration, and the urine glucose values are measured at each time-period by glucose-oxidase method.
The inhibiting activity of the cocrystal of I-D1-6 and L-proline on SGLT2 is measured by the model for rat urine glucose excretion.
The health SD rats are injected intraperitoneally with multiple low doses of streptozotocin for modeling (type 2 diabetes model) after feeding with high-fat and high-sucrose diet for one month, and the content of blood glucose is measured before and after modeling. After the modeling successful, the rats for modeling are randomly divided (8 rats/group) into one blank group (administering the same volume of 0.5% CMC sodium solution) and groups of tested compound (6 mg/kg) according to the content of 24-hour urine glucose and the body weight. Rats in each group are fasted for 16 hours before experiment. The experimental rats are administered intragastrically with the glucose (2 g/kg) at 0.5 h after intragastrical administration with the cocrystal of I-D1-6 and L-proline prepared in Example 138. The urine is collected at the time-period of 0-12 h after administration, and the urine glucose values are measured at each time-period by glucose-oxidase method.

Row | Compound | urine glucose excretion effect (in words)
1 | CCOc1ccc(Cc2cc([C@@H]3C[C@@H](O)[C@H](O)[C@@H](CO)O3)ccc2Cl)cc1 [I-D1-2, (1S)-1-[4-chloro-3-(4-ethoxybenzyl)phenyl]-1,2-dideoxy-D-glucose] | stronger urine glucose excretion effect
2 | CCOc1ccc(Cc2cc([C@@H]3O[C@H](CO)[C@@H](O)C[C@H]3O)ccc2Cl)cc1 [I-D1-3, (1S)-1-[4-chloro-3-(4-ethoxybenzyl)phenyl]-1,3-dideoxy-D-glucose] | stronger urine glucose excretion effect
3 | CCOc1ccc(Cc2cc([C@@H]3O[C@H](CO)C[C@H](O)[C@H]3O)ccc2Cl)cc1 [I-D1-4, (1S)-1-[4-chloro-3-(4-ethoxybenzyl)phenyl]-1,4-dideoxy-D-glucose] | stronger urine glucose excretion effect

same assay, conditions: type 2 diabetes model SD rats, 6 mg/kg intragastrically, glucose 2 g/kg at 0.5 h, urine collected 0-12 h

Row | Compound | Urine glucose excretion (mg/200 g body weight of the rat)
4 | CCc1ccc(Cc2cc(C3OC4(CC4)C(O)C(O)C3O)ccc2C)cc1 (stereo not shown) | 609 mg/200 g body weight of the rat
5 | C=C1OC(c2ccc(Cl)c(Cc3ccc(OCC)cc3)c2)C(O)C(O)C1O (stereo not shown) | 457 mg/200 g body weight of the rat
6 | CCOc1ccc(Cc2cc(C3OC(OC)C(O)C(O)C3O)ccc2Cl)cc1 (stereo not shown) | 644 mg/200 g body weight of the rat
7 | COc1ccc(Cc2cc(C3OC(C)C(O)C(O)C3O)ccc2C(F)(F)F)c(F)c1F (stereo not shown) | 622 mg/200 g body weight of the rat
8 | CCOc1ccc(Cc2cc(C3OC(C)C(O)C(O)C3O)ccc2OC)cc1 (stereo not shown) | 688 mg/200 g body weight of the rat
9 | COc1ccc(Cc2cc(C(C)C)cc(C3OC(C)C(O)C(O)C3O)c2)c(F)c1 (stereo not shown) | 523 mg/200 g body weight of the rat
10 | C#Cc1ccc(Cc2cc(C3OC(C)C(O)C(O)C3O)ccc2Cl)cc1 (stereo not shown) | 671 mg/200 g body weight of the rat
11 | CCc1ccc(Cc2cc(C3OC(C)C(O)C(O)C3O)ccc2C)cc1 (stereo not shown) | 613 mg/200 g body weight of the rat
12 | COc1ccc(Cc2cc(C3OC(CO)CC(O)C3O)ccc2Cl)cc1 (stereo not shown) | 310 mg/200 g body weight of the rat
13 | C#Cc1ccc(Cc2cc(C3OC(CO)CC(O)C3O)ccc2OC)cc1 (stereo not shown) | 328 mg/200 g body weight of the rat
14 | CCc1ccc(Cc2cc(C3OC(CO)C(O)CC3O)ccc2C)cc1 (stereo not shown) | 230 mg/200 g body weight of the rat
15 | CCOc1ccc(Cc2cc(C3OC(C)(C)C(O)C(O)C3O)ccc2Cl)cc1 (stereo not shown) | 470 mg/200 g body weight of the rat
16 | C=C1OC(c2ccc(Cl)c(Cc3ccc(OC)cc3)c2)C(O)C(O)C1O (stereo not shown) | 410 mg/200 g body weight of the rat
17 | CCCCOc1ccc(Cc2cc(C3OC(C)C(O)C(O)C3O)ccc2Cl)cc1 (stereo not shown) | 721 mg/200 g body weight of the rat
18 | COc1ccc(Cc2cc(C)cc(C3OC(C)C(O)C(O)C3O)c2)cc1F (stereo not shown) | 539 mg/200 g body weight of the rat
19 | CCc1ccc(Cc2cc(C3OC(C)C(O)C(O)C3O)ccc2OC)cc1 (stereo not shown) | 439 mg/200 g body weight of the rat
20 | COc1ccc(Cc2cc(C3OC(CO)CC(O)C3O)ccc2Cl)c(F)c1 (stereo not shown) | 288 mg/200 g body weight of the rat
21 | C#Cc1ccc(Cc2cc(C3OC(CO)CC(O)C3O)ccc2Cl)cc1 (stereo not shown) | 213 mg/200 g body weight of the rat
22 | CCc1ccc(Cc2cc(C3CC(O)C(O)C(CO)O3)ccc2C)cc1 (stereo not shown) | 378 mg/200 g body weight of the rat
23 | CCc1ccc(Cc2cc(C3OC(CO)C(O)CC3O)ccc2Cl)cc1 (stereo not shown) | 198 mg/200 g body weight of the rat
24 | COc1ccc(Cc2cc(C3OC(CO)C(O)CC3O)ccc2Cl)cc1 (stereo not shown) | 235 mg/200 g body weight of the rat
25 | Cc1ccc(C2OC(C)C(O)C(O)C2O)cc1Cc1ccc(OC2CCOC2)cc1 (stereo not shown) | 611 mg/200 g body weight of the rat
26 | CCc1ccc(Cc2cc(C3CC(O)C(O)C(CO)O3)ccc2Cl)cc1 (stereo not shown) | 412 mg/200 g body weight of the rat
27 | COc1ccc(Cc2cc(C3CC(O)C(O)C(CO)O3)ccc2Cl)cc1 (stereo not shown) | 426 mg/200 g body weight of the rat
28 | CCOc1ccc(Cc2cc(C3OC(CO)C(O)C(O)C3O)ccc2Cl)cc1 (stereo not shown) [drawing 194] | 743 mg/200 g body weight of the rat
29 | OCC1OC(c2ccc(F)c(Cc3cc4ccccc4s3)c2)C(O)C(O)C1O (stereo not shown) [drawing 195] | 621 mg/200 g body weight of the rat

Row | Compound | Urine glucose excretion (mg/200 g body weight of the rat)
30 | Cc1ccc(C2OC(CO)C(O)C(O)C2O)cc1Cc1ccc(-c2ccc(F)cc2)s1 (stereo not shown) [drawing 196] | 655 mg/200 g body weight of the rat
31 | OCC1OC(c2ccc(Cl)c(Cc3ccc(O[C@H]4CCOC4)cc3)c2)C(O)C(O)C1O (stereo partly shown) [drawing 197] | 643 mg/200 g body weight of the rat
32 | CCc1ccc(Cc2c(Cl)ccc3c2COC32OC(CO)C(O)C(O)C2O)cc1 (stereo not shown) [drawing 198] | 587 mg/200 g body weight of the rat
33 | CCOc1ccc(Cc2cc([C@]34OC[C@](CO)(O3)[C@@H](O)[C@H](O)[C@H]4O)ccc2Cl)cc1 [drawing 199] | 455 mg/200 g body weight of the rat
34 | CCOc1ccc(Cc2cc(C3SC(CO)C(O)C(O)C3O)c(OC)cc2C)cc1 (stereo not shown) [drawing 211] | 625 mg/200 g body weight of the rat
35 | COc1ccc(Cc2cc(C3OC(C)C(O)C(O)C3O)ccc2Cl)cc1 (stereo not shown) [drawing 213] | 736 mg/200 g body weight of the rat
36 | CCOc1ccc(Cc2cc(C3OC(C)C(O)C(O)C3O)ccc2C)cc1 (stereo not shown) [drawing 216] | 700 mg/200 g body weight of the rat
37 | CCCOc1ccc(Cc2cc(C3OC(C)C(O)C(O)C3O)ccc2Cl)cc1 (stereo not shown) [drawing 217] | 712 mg/200 g body weight of the rat
38 | CCOc1ccc(Cc2cc(C3OC(C)C(O)C(O)C3O)ccc2Cl)cc1 (stereo not shown) [drawing 219] | 833 mg/200 g body weight of the rat
39 | CCOc1ccc(Cc2cc(C3OC(CO)CC(O)C3O)ccc2Cl)cc1 (stereo not shown) [drawing 226] | 880 mg/200 g body weight of the rat
40 | CCOc1ccc(Cc2cc(C3CC(O)C(O)C(CO)O3)ccc2Cl)cc1 (stereo not shown) [drawing 227] | 811 mg/200 g body weight of the rat
41 | Cc1ccc(C2OC(CO)CC(O)C2O)cc1Cc1ccc(-c2ccc(F)cc2)s1 (stereo not shown) [drawing 228] | 801 mg/200 g body weight of the rat
42 | Cc1ccc(C2CC(O)C(O)C(CO)O2)cc1Cc1ccc(-c2ccc(F)cc2)s1 (stereo not shown) [drawing 229] | 698 mg/200 g body weight of the rat
43 | CC1OC(c2ccc(F)c(Cc3cc4ccccc4s3)c2)C(O)C(O)C1O (stereo not shown) [drawing 230] | 749 mg/200 g body weight of the rat
44 | OCC1OC(c2ccc(Cl)c(Cc3ccc(O[C@H]4CCOC4)cc3)c2)C(O)CC1O (stereo partly shown) [drawing 231] | 721 mg/200 g body weight of the rat
45 | CC1OC(c2ccc(Cl)c(Cc3ccc(O[C@H]4CCOC4)cc3)c2)C(O)C(O)C1O (stereo partly shown) [drawing 233] | 748 mg/200 g body weight of the rat
46 | OCC1OC(c2ccc(Cl)c(Cc3ccc(O[C@H]4CCOC4)cc3)c2)CC(O)C1O (stereo partly shown) [drawing 234] | 744 mg/200 g body weight of the rat
47 | CCOc1ccc(Cc2cc(C3OC(CO)C(O)CC3O)ccc2Cl)cc1 (stereo not shown) [drawing 237] | 828 mg/200 g body weight of the rat
48 | Cc1ccc(C2OC(C)C(O)C(O)C2O)cc1Cc1ccc(-c2ccc(F)cc2)s1 (stereo not shown) [drawing 238] | 723 mg/200 g body weight of the rat
49 | Cc1ccc(C2OC(CO)C(O)CC2O)cc1Cc1ccc(-c2ccc(F)cc2)s1 (stereo not shown) [drawing 239] | 772 mg/200 g body weight of the rat
50 | OCC1OC(c2ccc(F)c(Cc3cc4ccccc4s3)c2)C(O)CC1O (stereo not shown) [drawing 240] | 656 mg/200 g body weight of the rat
51 | OCC1CC(O)C(O)C(c2ccc(F)c(Cc3cc4ccccc4s3)c2)O1 (stereo not shown) [drawing 241] | 689 mg/200 g body weight of the rat
52 | OCC1OC(c2ccc(F)c(Cc3cc4ccccc4s3)c2)CC(O)C1O (stereo not shown) [drawing 242] | 716 mg/200 g body weight of the rat
53 | COc1ccc(Cc2cc(C3OC(C)C(O)C(O)C3O)ccc2Cl)cc1 (stereo not shown) [drawing 243] | 457 mg/200 g body weight of the rat
54 | OCC1CC(O)C(O)C(c2ccc(Cl)c(Cc3ccc(O[C@H]4CCOC4)cc3)c2)O1 (stereo partly shown) [drawing 244] | 723 mg/200 g body weight of the rat
55 | CCc1ccc(Cc2c(Cl)ccc3c2COC32OC(CO)CC(O)C2O)cc1 (stereo not shown) [drawing 245] | 634 mg/200 g body weight of the rat
